In general, IC50 refers to the point on the concentration scale where inhibition reaches its midpoint.

The target of the assay is T1, LRRK2 wild type (recombinant human, catalytic domain amino acids 970-2527, GST-tagged) (Homo sapiens, UniProt Q5S007).
T1 construct: The wild type used was recombinant human, catalytic domain (amino acids 970-2527) GST-tagged, expressed in insect cells; GST; purchased Invitrogen Corporation PV4873; host or cells: insect cells
T1 sequence (Q5S007 970-2527): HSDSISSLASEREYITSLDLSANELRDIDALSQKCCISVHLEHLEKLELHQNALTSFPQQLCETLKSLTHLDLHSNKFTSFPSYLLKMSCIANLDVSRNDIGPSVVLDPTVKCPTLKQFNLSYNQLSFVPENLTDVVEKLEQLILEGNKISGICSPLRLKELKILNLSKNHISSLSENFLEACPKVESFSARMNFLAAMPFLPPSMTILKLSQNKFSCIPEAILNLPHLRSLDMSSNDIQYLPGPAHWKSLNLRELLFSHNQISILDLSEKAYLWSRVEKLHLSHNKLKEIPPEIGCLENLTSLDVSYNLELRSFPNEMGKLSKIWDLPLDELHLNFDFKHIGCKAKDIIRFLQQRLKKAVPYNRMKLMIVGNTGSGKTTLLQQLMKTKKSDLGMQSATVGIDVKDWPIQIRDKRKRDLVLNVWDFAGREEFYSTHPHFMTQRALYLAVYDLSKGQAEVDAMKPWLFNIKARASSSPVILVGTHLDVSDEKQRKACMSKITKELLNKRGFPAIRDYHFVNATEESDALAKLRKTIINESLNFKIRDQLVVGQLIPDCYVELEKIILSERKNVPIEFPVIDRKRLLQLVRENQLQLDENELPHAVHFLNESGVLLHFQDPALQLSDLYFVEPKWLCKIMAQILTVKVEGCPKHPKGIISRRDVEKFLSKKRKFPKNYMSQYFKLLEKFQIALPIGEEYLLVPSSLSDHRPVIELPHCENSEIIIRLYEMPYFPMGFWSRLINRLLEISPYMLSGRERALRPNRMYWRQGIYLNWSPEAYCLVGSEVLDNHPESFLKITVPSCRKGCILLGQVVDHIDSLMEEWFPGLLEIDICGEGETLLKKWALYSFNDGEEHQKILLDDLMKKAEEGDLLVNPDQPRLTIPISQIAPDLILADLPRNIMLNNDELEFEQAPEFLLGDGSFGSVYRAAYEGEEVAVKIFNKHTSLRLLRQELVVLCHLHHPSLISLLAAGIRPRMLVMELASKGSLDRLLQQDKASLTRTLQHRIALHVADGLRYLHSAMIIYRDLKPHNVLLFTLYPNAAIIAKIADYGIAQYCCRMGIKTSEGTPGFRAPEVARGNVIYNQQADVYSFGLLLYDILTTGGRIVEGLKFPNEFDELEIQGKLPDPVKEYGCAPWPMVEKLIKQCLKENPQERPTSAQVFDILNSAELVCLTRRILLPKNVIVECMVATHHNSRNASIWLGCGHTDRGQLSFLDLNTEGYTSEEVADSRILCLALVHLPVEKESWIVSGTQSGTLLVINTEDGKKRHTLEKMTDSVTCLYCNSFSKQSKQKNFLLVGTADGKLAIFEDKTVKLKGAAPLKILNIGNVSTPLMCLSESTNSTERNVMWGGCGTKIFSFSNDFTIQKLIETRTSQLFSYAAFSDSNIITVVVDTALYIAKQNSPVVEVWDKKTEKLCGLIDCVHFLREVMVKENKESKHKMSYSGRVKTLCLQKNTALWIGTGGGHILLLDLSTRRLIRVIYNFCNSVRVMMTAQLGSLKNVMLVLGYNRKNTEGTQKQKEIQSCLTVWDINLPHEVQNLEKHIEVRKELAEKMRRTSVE
As to the kind of experiment: LRRK2 wild type protein kinase assay ([γ-33P] ATP, peptide substrate […]), IC50. The following applies: LRRK2 (variant not given); read-out: Potency score, LRRK2 IC50. The assay is classed as biochemical. In outline:
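IC50 derived from duplicate 10-point titrations, with 33P incorporation into a 100 μM peptide counted after P81 filter capture. Roughly 5 nM unactivated kinase reacted with Mg/[γ-33P]ATP for 180 min at room temperature (~21 °C), pH 7.5 Tris buffer containing 10 mM MgCl2, EGTA and DTT; acid-quenched.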
`c1cc2[nH]ncc2c(NC2CCCCC2)n1` [Example 133, Cyclohexyl-(1H-pyrazolo[4,3-c]pyridin-4-yl)-amine]: the IC50 is 1000 to 10000 nM. In the case of `CN(C)C(=O)c1ccc(-c2n[nH]c3ccnc(NC4CCCCC4)c23)cc1` [Example 165, 4-(4-Cyclohexylamino-1H-pyrazolo[4,3-c]pyridin-3-yl)-N,N-dimethyl-benzamide], the IC50 lay within 1000 to 10000 nM.

Take `c1cc(-c2n[nH]c3ccnc(NC4CCCCC4)c23)cc(-n2cccn2)c1` [Example 155]: the IC50 is 100 to 1000 nM. As for `Cc1n[nH]c2ccnc(NCC(C)C)c12` [Example 24, Isobutyl-(3-methyl-1H-pyrazolo[4,3-c]pyridin-4-yl)-amine], the figure is 100 to 1000 nM.

For the compound `Cc1n[nH]c2ccnc(Nc3ccccc3F)c12` [Example 62, (2-Fluoro-phenyl)-(3-methyl-1H-pyrazolo[4,3-c]pyridin-4-yl)-amine], the IC50 lay in the range of 100 to 1000 nM. On to `Cc1n[nH]cc1Nc1nccc2[nH]nc(C)c12` [Example 82, (3-Methyl-1H-pyrazolo[4,3-c]pyridin-4-yl)-(3-methyl-1H-pyrazol-4-yl)-amine], for which the IC50 lay within 1000 to 10000 nM. Under `c1cc(CCc2n[nH]c3ccnc(NC4CCCCC4)c23)ccn1` [Example 218, Cyclohexyl-[3-(2-pyridin-4-yl-ethyl)-1H-pyrazolo[4,3-c]pyridin-4-yl]-amine] stands 100 to 1000 nM; under `COc1cccc(-c2nccc3[nH]nc(C)c23)c1` [Example 57, 4-(3-Methoxy-phenyl)-3-methyl-1H-pyrazolo[4,3-c]pyridine], 1000 to 10000 nM; under `c1cc2[nH]nc(N3CCCC3)c2c(OC2CCCCC2)n1` [Example 237, 4-Cyclohexyloxy-3-pyrrolidin-1-yl-1H-pyrazolo[4,3-c]pyridine], 100 to 1000 nM. Turning to `O=C(Nc1ccc(CCc2n[nH]c3ccnc(NC4CCCCC4)c23)cc1)C1CC1` [Example 274, Cyclopropanecarboxylic acid {4-[2-(4-cyclohexylamino-1H-pyrazolo[4,3-c]pyridin-3-yl)-ethyl]-phenyl}-amide], the IC50 was less than 100 nM. Take `OCCCc1n[nH]c2ccnc(NC3CCCCC3)c12` [Example 231, 3-(4-Cyclohexylamino-1H-pyrazolo[4,3-c]pyridin-3-yl)-propan-1-ol]: the IC50 lay in the range of 1000 to 10000 nM. Take `O=C(CCc1n[nH]c2ccnc(NC3CCCCC3)c12)N1CCC(c2cccnc2)C1` (centres unmarked) [Example 207, 3-(4-Cyclohexylamino-1H-pyrazolo[4,3-c]pyridin-3-yl)-1-(3-pyridin-3-yl-pyrrolidin-1-yl)-propan-1-one]: the IC50 was less than 100 nM. As for `CN1CCC(C(=O)Nc2ccc(CCc3n[nH]c4ccnc(NC5CCCCC5)c34)cc2)CC1` [Example 271, 1-Methyl-piperidine-4-carboxylic acid {4-[2-(4-cyclohexylamino-1H-pyrazolo[4,3-c]pyridin-3-yl)-ethyl]-phenyl}-amide], the IC50 fell in the range of 100 to 1000 nM.

In the case of `COc1ccccc1Nc1nccc2[nH]nc(C)c12` [Example 84, (2-Methoxy-phenyl)-(3-methyl-1H-pyrazolo[4,3-c]pyridin-4-yl)-amine], the IC50 lay within 100 to 1000 nM. As to `O=C(CCc1n[nH]c2ccnc(O)c12)N1CCC[C@H](c2ccccc2)C1` [Example 257, 3-(4-Hydroxy-1H-pyrazolo[4,3-c]pyridin-3-yl)-1-((R)-3-phenyl-piperidin-1-yl)-propan-1-one], the 50% inhibitory concentration (IC50) is 1000 to 10000 nM. With `Cc1n[nH]c2ccnc(Nc3ccc(-c4cnco4)cc3)c12` [Example 87, (3-Methyl-1H-pyrazolo[4,3-c]pyridin-4-yl)-(4-oxazol-5-yl-phenyl)-amine], the IC50 was 100 to 1000 nM. Under `O=C1CCCN1c1n[nH]c2ccnc(NC3CCCCC3)c12` [Example 230, 1-(4-Cyclohexylamino-1H-pyrazolo[4,3-c]pyridin-3-yl)-pyrrolidin-2-one] stands 1000 to 10000 nM. On to `COc1ccc(-c2n[nH]c3ccnc(NC4CCCCC4)c23)cc1` [Example 141, Cyclohexyl-[3-(4-methoxy-phenyl)-1H-pyrazolo[4,3-c]pyridin-4-yl]-amine], for which the IC50 was in the range of 100 to 1000 nM.

`CO[C@@H](C)COc1nccc2[nH]nc(C)c12` [Example 287]: the IC50 lay in the range of 1000 to 10000 nM. Take `c1cncc(-c2n[nH]c3ccnc(NC4CCCCC4)c23)c1` [Example 135, Cyclohexyl-(3-pyridin-3-yl-1H-pyrazolo[4,3-c]pyridin-4-yl)-amine]: the IC50 lay in the range of 100 to 1000 nM. Regarding `O=C(CC1CC1)Nc1cccc(CCc2n[nH]c3ccnc(NC4CCCCC4)c23)c1` [Example 223, N-{3-[2-(4-Cyclohexylamino-1H-pyrazolo[4,3-c]pyridin-3-yl)-ethyl]-phenyl}-2-cyclopropyl-acetamide], the IC50 is less than 100 nM.

Turning to `Cc1n[nH]c2ccnc(Nc3ccc4nc[nH]c4c3)c12` [Example 81, (3H-Benzimidazol-5-yl)-(3-methyl-1H-pyrazolo[4,3-c]pyridin-4-yl)-amine], the IC50 was in the range of 100 to 1000 nM. As for `O=C(/C=C/c1n[nH]c2ccnc(OC3CCCCC3)c12)N1CCC[C@H](c2ccccc2)C1` [Example 261, (E)-3-(4-Cyclohexyloxy-1H-pyrazolo[4,3-c]pyridin-3-yl)-1-((R)-3-phenyl-piperidin-1-yl)-propenone], the figure is less than 100 nM; as for `Cc1n[nH]c2ccnc(Oc3cccc(F)c3)c12` [Example 117, 4-(3-Fluoro-phenoxy)-3-methyl-1H-pyrazolo [4,3-c]pyridine], 100 to 1000 nM. For `Cc1n[nH]c2ccnc(Nc3ccc4cn[nH]c4c3)c12` [Example 93, (1H-Indazol-6-yl)-(3-methyl-1H-pyrazolo[4,3-c]pyridin-4-yl)-amine], the IC50 was in the range of 100 to 1000 nM. As to `Cc1n[nH]c2ccnc(Nc3ccc(C(=O)N4CCCC4)cc3)c12` [Example 113, [4-(3-Methyl-1H-pyrazolo[4,3-c]pyridin-4-ylamino)-phenyl]-pyrrolidin-1-yl-methanone], the IC50 is 100 to 1000 nM.

In the case of `Cc1n[nH]c2ccnc(N[C@@H](CO)C(C)C)c12` [Example 30, (R)-3-Methyl-2-(3-methyl-1H-pyrazolo[4,3-c]pyridin-4-ylamino)-butan-1-ol], the IC50 is 1000 to 10000 nM. As to `CCN(CC)CC1CCCN(C(=O)CCc2n[nH]c3ccnc(NC4CCCCC4)c23)C1` (centres unmarked) [Example 240, 3-(4-Cyclohexyl-amino-1H-pyrazolo[4,3-c]pyridin-3-yl)-1-(3-diethylaminomethyl-piperidin-1-yl)-propan-1-one], the IC50 lay within 100 to 1000 nM. For the compound `Cc1n[nH]c2ccnc(Nc3ccc(Cl)cc3)c12` [Example 310, (4-Chloro-phenyl)-(3-methyl-1H-pyrazolo[4,3-c]pyridin-4-yl)-amine], the concentration for half-maximal inhibition (IC50) fell in the range of 100 to 1000 nM. On to `O=C(c1ccc(CCc2n[nH]c3ccnc(NC4CCCCC4)c23)cc1)N1CC[C@H](c2cccnc2)C1` [Example 248, {4-[2-(4-Cyclohexylamino-1H-pyrazolo[4,3-c]pyridin-3-yl)-ethyl]-phenyl}-((R)-3-pyridin-3-yl-pyrrolidin-1-yl)-methanone], for which the concentration for half-maximal inhibition (IC50) is less than 100 nM. As for `Cc1n[nH]c2ccnc(Nc3cnn(C)c3)c12` [Example 88, (3-Methyl-1H-pyrazolo[4,3-c]pyridin-4-yl)-(1-methyl-1H-pyrazol-4-yl)-amine], the figure is 100 to 1000 nM. Consider `Cc1n[nH]c2ccnc(-c3ccc(N4CCOCC4)cc3)c12` [Example 53, 3-Methyl-4-(4-morpholin-4-yl-phenyl)-1H-pyrazolo[4,3-c] pyridine], for which the IC50 lay within 1000 to 10000 nM.

Source of the values: US20170320870A1 (Medical Research Council Technology, priority 2009, published 2017).
